Measurements from PMC7501296, “Rapid and direct control of target protein levels with VHL-recruiting dTAG molecules” (Nature Communications, 2020).
Several values for one entry are separate records, joined by “and”; a condition that tells them apart may be missing. Equal entries are not always repeated.

Legend:
luciferase-FKBP12^F36V = molecular target: T1, luciferase-FKBP12^F36V (Homo sapiens, UniProt P62942, F37V); assay: Pharmacodynamic evaluation: bioluminescence of MV4;11 luc-FKBP12F36V cells in mice; assay type: in vivo, mice (NSG); design: Total flux for each mouse: unit not given here; settings: for Total flux for each mouse: single mice
T1 construct: luciferase (fusion partner); expressed in transfected cells; host or cells: MV4;11 cells transplanted into NSG mice
Excerpt: For IP injections, dTAG-13 and dTAG^V-1 were formulated by dissolving into DMSO and then diluting with 20% solutol (Sigma): 0.9% sterile saline (Moltox) (w:v) with the final formulation containing 5% DMSO. […] Formulations were stable at room temperature for 7 days. For IV injections, dTAG-13 and dTAG^V-1 were formulated by dissolving into DMSO and then diluting with 5% solutol (Sigma): 0.9% sterile saline (Moltox) (w:v) with the final formulation containing 5% DMSO.
All procedures for PD studies were compliant with ethical regulations for animal testing and research, and were approved by and performed in accordance with standards of the IACUC at Dana–Farber Cancer Institute. Housing conditions for mice at Dana–Farber Cancer Institute were as follows: lights on = 6 AM, lights off = 6 PM, average ambient temperature = 72 °F, and average humidity = 35–55%. Evaluation of degradation of luciferase in vivo was performed using MV4;11 luc-FKBP12^F36V cells and bioluminescent measurements[6],[48]. In brief, 250,000 viable MV4;11 luc-FKBP12^F36V cells were transplanted by tail-vein injection in 8-week-old immunocompromised female mice (NOD.Cg-Prkdc^scidIl2rg^tm1Wjl/SzJ, NSG; Jackson Laboratory, #005557). Bioluminescent measurements were performed following IP injection of 75 mg kg^−1 D-Luciferin (Promega). Mice were then anesthetized with 2−3% isoflurane, imaged on an IVIS Spectrum (Caliper Life Sciences), and total body bioluminescence was determined using a standardized region of interest. Two and seven days after tail-vein injection, bioluminescent measurements were performed to confirm engraftment. […] For treatments, compounds were formulated as described above, administered via IP injection and bioluminescent measurements were performed daily as described in Fig. 2d, beginning 8 days after tail-vein injection.

[1] = test system: EWS502 FKBP12^F36V-EWS/FLI; EWS/FLI^−/− cells; assay: Relative growth of EWS502 FKBP12F36V-EWS/FLI; EWS/FLI-/- cells (CellTiter-Glo); assay type: cell-based; settings: for Relative growth (luminescence values relative to day 0): EWS502 FKBP12F36V-EWS/FLI, EWS/FLI-/-; for Antiproliferation (relative growth): replicate values
Description: (§1) Cell viability was assayed in 2D-adherent or ultra-low adherent 3D-spheroids using CellTiter-Glo (Promega)[6],[15]. Luminescence was measured on an Envision 2104 plate reader (PerkinElmer) and Fluostar Omega Reader (BMG Labtech) and data was analyzed using GraphPad PRISM v8. Synergy assessments were performed using CellTiter-Glo (Promega) with the following modifications to the protocol described in the ref. [34]. In brief, EWS502 cells were plated at 1000 cells per well in 50 µL of appropriate media in 384-well white culture plates (Corning) allowed to adhere overnight, and 100 nL of compounds were added using a Janus Workstation pin tool (PerkinElmer) for 72 h. Cell viability was measured by addition of 10 µL of CellTiter-glo (Promega), followed by incubation for 15 minutes at room temperature. Luminescence was measured on an Envision 2104 plate reader (PerkinElmer) and data was analyzed using GraphPad PRISM v8.

[2] = test system: EWS502 FKBP12^F36V-GFP cells; assay: Relative growth of EWS502 FKBP12F36V-GFP cells (CellTiter-Glo); assay type: cell-based
Description: as §1

[3] = test system: EWS502 FKBP12^F36V-EWS/FLI; EWS/FLI^−/− cells; assay: Synergy assessment: antiproliferation of EWS502 FKBP12F36V-EWS/FLI; EWS/FLI-/- cells co-treated with dTAGV-1 and dBET6, 72 h; assay type: cell-based
Description: as §1

T1 sequence (P62942 2-108 F37V limits assumed): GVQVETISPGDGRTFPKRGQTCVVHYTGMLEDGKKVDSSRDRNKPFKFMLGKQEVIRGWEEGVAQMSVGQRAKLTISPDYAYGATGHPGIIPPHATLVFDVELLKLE

SMILES: CC[C@H](C(=O)N1CCCC[C@H]1C(=O)O[C@H](CCc1ccc(OC)c(OC)c1)c1ccccc1OCC(=O)NCCCCCCC(=O)N[C@H](C(=O)N1C[C@H](O)C[C@H]1C(=O)N[C@@H](C)c1ccc(-c2scnc2C)cc1)C(C)(C)C)c1cc(OC)c(OC)c(OC)c1 [dTAG^V-1]
- Bioluminescent signal 4 h after each of the three administrations (luciferase-FKBP12^F36V; 35 mg kg^−1 IP): Consistent loss of bioluminescent signal
- Bioluminescent signal 4 h after the first administration (luciferase-FKBP12^F36V; 35 mg kg^−1 IP): Striking loss of bioluminescent signal
- Duration of degradation (luciferase-FKBP12^F36V; 35 mg kg^−1 IP, after the final administration): degradation evident 28 h after the final administration
- Total flux for each mouse (luciferase-FKBP12^F36V; Baseline (day 0, before treatment), MV4;11 luc-FKBP12F36V): 1893000 and 1330000 and 3116000 and 1809000 and 3338000
- Total flux for each mouse (luciferase-FKBP12^F36V; No treatment (day 4), 28 h after third and final treatment): 601200 and 13590000 and 24710000 and 1755000 and 24650000
- Total flux for each mouse (luciferase-FKBP12^F36V; Treatment #1 (day 1), 4 h after 35 mg kg^−1 IP): 4041000 and 2159000 and 3736000 and 2539000 and 5912000
- Total flux for each mouse (luciferase-FKBP12^F36V; Treatment #2 (day 2), 4 h after 35 mg kg^−1 IP): 3135000 and 1001000 and 2876000 and 2693000 and 9211000
- Total flux for each mouse (luciferase-FKBP12^F36V; Treatment #3 (day 3), 4 h after 35 mg kg^−1 IP): 4741000 and 1924000 and 4372000 and 3069000 and 6943000
- Relative growth (luminescence values relative to day 0) ([1]; day 0, technical replicates): 0.8696 and 1.038 (2×) and 1.097 and 0.9086 and 1.006 and 0.975 and 1.069
- Relative growth (luminescence values relative to day 0) ([1]; day 3, technical replicates): 3.17 and 3.081 and 3.35 and 3.515 and 3.02 and 3.212 and 3.235 and 3.093
- Relative growth (luminescence values relative to day 0) ([1]; day 5, technical replicates): 3.571 and 3.881 and 3.894 and 3.809 and 3.6579 and 3.634 and 3.713 and 3.678
- Relative growth (luminescence values relative to day 0) ([1]; day 7, technical replicates): 4.1 and 3.846 and 4.015 and 4.459 and 4.182 and 3.984 and 3.963 and 4.228
- Antiproliferation (relative growth) ([1]; Time 0 days): 1.031 and 1.006 and 0.9491 and 0.9896 and 1.023 and 0.9889 and 1.015 and 0.9988
- Antiproliferation (relative growth) ([1]; Time 3 days): 3.562 and 3.604 and 3.659 and 3.498 and 3.439 and 4 and 3.9346 and 3.855
- Antiproliferation (relative growth) ([1]; Time 5 days): 4.651 and 4.613 and 4.429 and 4.423 and 4.852 and 4.574 and 4.874 and 4.602
- Antiproliferation (relative growth) ([1]; Time 7 days): 4.558 and 4.146 and 4.393 and 4.598 and 4.588 and 4.347 and 4.317 and 4.895
- Antiproliferative effects upon EWS/FLI degradation ([1]; longer time-points): Potent antiproliferative effects
- Relative growth (luminescence values relative to day 0) ([2]; day 0, technical replicates): 1.01 and 0.9846 and 0.9416 and 1.081 and 0.9895 and 0.8796 and 1.056 and 1.058
- Relative growth (luminescence values relative to day 0) ([2]; day 3, technical replicates): 7.436 and 7.522 and 7.571 and 8.146 and 7.791 and 7.539 and 7.5229 and 8.295
- Relative growth (luminescence values relative to day 0) ([2]; day 5, technical replicates): 12.9905 and 13.8226 (2×) and 13.4717 and 14.0465 and 14.5379 and 14.3196 and 15.9343
- Relative growth (luminescence values relative to day 0) ([2]; day 7, technical replicates): 19.3543 and 18.2942 and 18.0829 and 20.64 and 18.2038 and 18.0695 and 17.6427 and 20.3483
- Average DMSO-normalized ratio used for CI calculation ([3]; 19.5 nM dTAGV-1 alone): 0.9622
- Average DMSO-normalized ratio used for CI calculation ([3]; 78 nM dTAGV-1 alone): 1.188
- Average DMSO-normalized ratio used for CI calculation ([3]; 312.5 nM dTAGV-1 alone): 1.089
- Average DMSO-normalized ratio used for CI calculation ([3]; 1250 nM dTAGV-1 alone): 1.112
- Average DMSO-normalized ratio used for CI calculation ([3]; 5000 nM dTAGV-1 alone): 1.06
- DMSO-normalized antiproliferation, Mean ([3]; co-treatment 19.5 nM dTAGV-1 (log10[M] -7.70927) + 1 nM dBET6 (log10[M] -9.0103)): 98.11
- DMSO-normalized antiproliferation, Mean ([3]; co-treatment 19.5 nM dTAGV-1 (log10[M] -7.70927) + 4 nM dBET6 (log10[M] -8.40824)): 98.09
- DMSO-normalized antiproliferation, Mean ([3]; co-treatment 19.5 nM dTAGV-1 (log10[M] -7.70927) + 15.6 nM dBET6 (log10[M] -7.80618)): 79.8
- DMSO-normalized antiproliferation, Mean ([3]; co-treatment 19.5 nM dTAGV-1 (log10[M] -7.70927) + 62.5 nM dBET6 (log10[M] -7.20412)): 50.57
- DMSO-normalized antiproliferation, Mean ([3]; co-treatment 19.5 nM dTAGV-1 (log10[M] -7.70927) + 250 nM dBET6 (log10[M] -6.60206)): 35.76
- DMSO-normalized antiproliferation, Mean ([3]; co-treatment 78 nM dTAGV-1 (log10[M] -7.10721) + 1 nM dBET6 (log10[M] -9.0103)): 113.36
- DMSO-normalized antiproliferation, Mean ([3]; co-treatment 78 nM dTAGV-1 (log10[M] -7.10721) + 4 nM dBET6 (log10[M] -8.40824)): 105.67
- DMSO-normalized antiproliferation, Mean ([3]; co-treatment 78 nM dTAGV-1 (log10[M] -7.10721) + 15.6 nM dBET6 (log10[M] -7.80618)): 83.17
- DMSO-normalized antiproliferation, Mean ([3]; co-treatment 78 nM dTAGV-1 (log10[M] -7.10721) + 62.5 nM dBET6 (log10[M] -7.20412)): 54.14
- DMSO-normalized antiproliferation, Mean ([3]; co-treatment 78 nM dTAGV-1 (log10[M] -7.10721) + 250 nM dBET6 (log10[M] -6.60206)): 36.78
- DMSO-normalized antiproliferation, Mean ([3]; co-treatment 312.5 nM dTAGV-1 (log10[M] -6.50515) + 1 nM dBET6 (log10[M] -9.0103)): 111.14
- DMSO-normalized antiproliferation, Mean ([3]; co-treatment 312.5 nM dTAGV-1 (log10[M] -6.50515) + 4 nM dBET6 (log10[M] -8.40824)): 105.95
- DMSO-normalized antiproliferation, Mean ([3]; co-treatment 312.5 nM dTAGV-1 (log10[M] -6.50515) + 15.6 nM dBET6 (log10[M] -7.80618)): 72.28
- DMSO-normalized antiproliferation, Mean ([3]; co-treatment 312.5 nM dTAGV-1 (log10[M] -6.50515) + 62.5 nM dBET6 (log10[M] -7.20412)): 49.08
- DMSO-normalized antiproliferation, Mean ([3]; co-treatment 312.5 nM dTAGV-1 (log10[M] -6.50515) + 250 nM dBET6 (log10[M] -6.60206)): 33.26
- DMSO-normalized antiproliferation, Mean ([3]; co-treatment 1250 nM dTAGV-1 (log10[M] -5.90309) + 1 nM dBET6 (log10[M] -9.0103)): 89.48
- DMSO-normalized antiproliferation, Mean ([3]; co-treatment 1250 nM dTAGV-1 (log10[M] -5.90309) + 4 nM dBET6 (log10[M] -8.40824)): 74.91
- DMSO-normalized antiproliferation, Mean ([3]; co-treatment 1250 nM dTAGV-1 (log10[M] -5.90309) + 15.6 nM dBET6 (log10[M] -7.80618)): 44.25
- DMSO-normalized antiproliferation, Mean ([3]; co-treatment 1250 nM dTAGV-1 (log10[M] -5.90309) + 62.5 nM dBET6 (log10[M] -7.20412)): 31.06
- DMSO-normalized antiproliferation, Mean ([3]; co-treatment 1250 nM dTAGV-1 (log10[M] -5.90309) + 250 nM dBET6 (log10[M] -6.60206)): 29.68
- DMSO-normalized antiproliferation, Mean ([3]; co-treatment 5000 nM dTAGV-1 (log10[M] -5.30103) + 1 nM dBET6 (log10[M] -9.0103)): 80.15
- DMSO-normalized antiproliferation, Mean ([3]; co-treatment 5000 nM dTAGV-1 (log10[M] -5.30103) + 4 nM dBET6 (log10[M] -8.40824)): 47.93
- DMSO-normalized antiproliferation, Mean ([3]; co-treatment 5000 nM dTAGV-1 (log10[M] -5.30103) + 15.6 nM dBET6 (log10[M] -7.80618)): 27.9
- DMSO-normalized antiproliferation, Mean ([3]; co-treatment 5000 nM dTAGV-1 (log10[M] -5.30103) + 62.5 nM dBET6 (log10[M] -7.20412)): 26.15
- DMSO-normalized antiproliferation, Mean ([3]; co-treatment 5000 nM dTAGV-1 (log10[M] -5.30103) + 250 nM dBET6 (log10[M] -6.60206)): 25.03
- DMSO-normalized antiproliferation, Mean ([3]; dTAGV-1 log10[M] -5.30103, with DMSO (no dBET6)): 106.03
- DMSO-normalized antiproliferation, Mean ([3]; dTAGV-1 log10[M] -5.90309, with DMSO (no dBET6)): 111.22
- DMSO-normalized antiproliferation, Mean ([3]; dTAGV-1 log10[M] -6.50515, with DMSO (no dBET6)): 108.9
- DMSO-normalized antiproliferation, Mean ([3]; dTAGV-1 log10[M] -7.10721, with DMSO (no dBET6)): 118.75
- DMSO-normalized antiproliferation, Mean ([3]; dTAGV-1 log10[M] -7.70927, with DMSO (no dBET6)): 96.22
